Consider 36 compounds from BindingDB's records for doi:10.7270/Q2ZC817P (The Scripps Research Institute Molecular Screening Center, 2007).

Structures can show the parent of a compound that is named as a salt.

Sphingosine 1-phosphate receptor 1, sequence (P21453 whole entry): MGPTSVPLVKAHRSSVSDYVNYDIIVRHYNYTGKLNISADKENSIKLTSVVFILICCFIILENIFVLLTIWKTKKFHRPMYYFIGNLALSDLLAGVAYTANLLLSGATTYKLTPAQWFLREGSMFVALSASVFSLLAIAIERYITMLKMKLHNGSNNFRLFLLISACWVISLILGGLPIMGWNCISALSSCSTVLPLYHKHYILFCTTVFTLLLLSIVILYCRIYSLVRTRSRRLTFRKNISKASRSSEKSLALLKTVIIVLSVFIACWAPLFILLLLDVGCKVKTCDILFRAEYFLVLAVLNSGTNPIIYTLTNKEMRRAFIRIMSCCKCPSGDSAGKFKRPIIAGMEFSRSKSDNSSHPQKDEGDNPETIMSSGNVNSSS

One experiment concerns the target Sphingosine 1-phosphate receptor 1 (Homo sapiens, UniProt P21453). As to the kind of experiment: S1P1 agonism potentiation – cell-based, potentiator mode, 60K MLSMR set, dose response (AID 466).
Conditions: not given
A word on the EC50: it is the concentration at which the effect is half-maximal. Regarding `COc1ccccc1Oc1ccc2c(c1)C(=O)N(c1cccc(O)c1)C2=O` [2-(3-hydroxyphenyl)-5-(2-methoxyphenoxy)isoindole-1,3-dione], the EC50 was found to be 2.14 µM.

As to `Cn1c(-c2c(N)n(C3CCCC3)c3nc4ccccc4nc23)nc2ccccc21` [1-cyclopentyl-3-(1-methyl-2-benzimidazolyl)-2-pyrrolo[3,2-b]quinoxalinamine], the EC50 came out at 1.56 µM. For the compound `c1ccc2c(c1)oc1c(NCc3ccc4c(c3)OCO4)ncnc12` [MLS000057790], the EC50 worked out at 6.46 µM. On to `CC(C)OC(=O)CSc1nc(N)c(C#N)c(-c2cccs2)c1C#N` [2-[(6-amino-3,5-dicyano-4-thiophen-2-yl-2-pyridinyl)thio]acetic acid propan-2-yl ester], for which the EC50 is greater than 30 µM. Still for that read-out and setting: the same measure for `COc1ccccc1OCc1nc(C#N)c(N2CC(C)CC(C)C2)o1` (stereo unspecified) [5-(3,5-dimethyl-1-piperidinyl)-2-[(2-methoxyphenoxy)methyl]-4-oxazolecarbonitrile]: 2.55 µM; for `COCCN(C(=O)c1ccccc1)c1nnc(-c2cccnc2)s1` [MLS000032523]: 4.83 µM; for `O=C(c1ccc(Cl)s1)N1CCN(c2nc3ccccc3s2)CC1` [MLS000100900]: greater than 30 µM. On the same count and under the same terms, with `CCc1c(C)nc2ncnn2c1NCCc1ccc(OC)cc1` [(6-Ethyl-5-methyl-[1,2,4]triazolo[1,5-a]pyrimidin-7-yl)-[2-(4-methoxy-phenyl)-ethyl]-amine] the figure was 9.1 µM.

Take `O=C(c1ccc(F)cc1)C(CN1CCOCC1)c1ccccc1` (stereo unspecified) [1-(4-fluorophenyl)-3-(4-morpholinyl)-2-phenyl-1-propanone;hydrochloride]: the EC50 turned out to be 23.5 µM. Consider `CCCCOC(=O)c1[nH]c2c(c1C)C(=O)CC(c1cc(OC)c(OC)c(OC)c1)C2` (stereo unspecified), for which the EC50 turned out to be 5.06 µM. For `COc1ccc(-c2nc(-c3ccc(Br)o3)no2)cc1OC` [3-(5-bromanylfuran-2-yl)-5-(3,4-dimethoxyphenyl)-1,2,4-oxadiazole], the EC50 amounted to 5.87 µM. The same measure, in the same setting: the same measure for `O=C(Nc1nc2c(s1)CCCC2)c1cc2n(n1)C(C(F)(F)F)CC(C1CC1)N2` (stereo unspecified) [5-Cyclopropyl-7-trifluoromethyl-4,5,6,7-tetrahydro-pyrazolo[1,5-a]pyrimidine-2-carboxylic acid (4,5,6,7-tetrahydro-benzothiazol-2-yl)-amide]: 0.908 µM; for `COc1ccc(CNC(=O)c2cc3c(C)nc4ccccc4c3o2)c(OC)c1` [MLS000118441]: 5.06 µM; for `CCCCNc1cc(C)nc(NCc2ccccc2)n1` [2-N-benzyl-4-N-butyl-6-methylpyrimidine-2,4-diamine]: 5.39 µM. As for `N#C/C(=C/c1ccc(N2CCCCCC2)o1)c1ccc(F)cc1` [MLS000051438], the EC50 was greater than 10 µM. Take `Cc1ccccc1-n1c(SCC(=O)c2cc(C)n(C)c2C)nnc1-c1ccncc1` [2-[[4-(2-methylphenyl)-5-pyridin-4-yl-1,2,4-triazol-3-yl]sulfanyl]-1-(1,2,5-trimethylpyrrol-3-yl)ethanone]: the concentration for a half-maximal effect (EC50) is greater than 95 µM. Turning to `Cc1ccc(-n2c(C)cc(C(=O)CSc3nnnn3C)c2C)cc1` [1-[2,5-dimethyl-1-(4-methylphenyl)-3-pyrrolyl]-2-[(1-methyl-5-tetrazolyl)thio]ethanone], the EC50 amounted to 6.1 µM. In the case of `Cn1ncnc2c(=O)n(C)c(=O)nc1-2`, the EC50 was determined as 1.73 µM.

`CCOc1ccc(C(=O)Nc2c(C(N)=O)oc3ccccc23)cc1` [3-[(4-ethoxybenzoyl)amino]-1-benzofuran-2-carboxamide]: the EC50 came out at 3.67 µM. For `COC(=O)c1ccc(C(c2c(N)n(CC(C)C)c(=O)[nH]c2=O)N2CCN(c3ccccc3)CC2)cc1` (stereo unspecified) [4-[[6-amino-1-(2-methylpropyl)-2,4-dioxo-5-pyrimidinyl]-(4-phenyl-1-piperazinyl)methyl]benzoic acid methyl ester], the EC50 is greater than 95 µM.

Consider `Cc1noc(/C=C/N(C)C)c1S(=O)(=O)N1CCN(c2ccccc2)CC1` [(E)-N,N-dimethyl-2-[3-methyl-4-(4-phenylpiperazin-1-yl)sulfonyl-1,2-oxazol-5-yl]ethenamine], for which the EC50 is greater than 95 µM. In the case of `CCOC(=O)N1CCN(C(=O)C2CCN(c3ncnc4c3sc3cccc(F)c34)CC2)CC1` [4-[1-(9-fluorobenzothiopheno[3,2-d]pyrimidin-4-yl)isonipecotoyl]piperazine-1-carboxylic acid ethyl ester], the EC50 came to 6.63 µM. On the same count and under the same terms, with `COc1ccc(-c2noc(-c3ccccc3F)n2)cc1` [5-(2-fluorophenyl)-3-(4-methoxyphenyl)-1,2,4-oxadiazole] the figure was 6.17 µM; with `COc1ccc(S(=O)(=O)N2CCN(c3ccc(C)cc3C)CC2)cc1OC` [1-(3,4-dimethoxyphenyl)sulfonyl-4-(2,4-dimethylphenyl)piperazine], 7.77 µM; with `Cc1cc(C(=O)CSc2nnc(-c3ccccc3)n2-c2ccccc2)c(C)n1-c1nnc[nH]1`, 6.13 µM. `Cc1cc(C(=O)CSc2nc3ccccc3c(=O)n2C)c(C)n1Cc1ccc2c(c1)OCO2` [2-[2-[1-(1,3-benzodioxol-5-ylmethyl)-2,5-dimethyl-pyrrol-3-yl]-2-oxidanylidene-ethyl]sulfanyl-3-methyl-quinazolin-4-one]: the EC50 is 5.57 µM.

Turning to `COc1ccc(C(c2c(O)ccc3ccccc23)N2CCOCC2)c(OC)c1` (stereo unspecified) [1-[(2,4-dimethoxyphenyl)-(4-morpholinyl)methyl]-2-naphthalenol], the EC50 came to 3.83 µM. The same measure, in the same setting: the same measure for `Cc1noc(C)c1S(=O)(=O)N(CC(=O)Nc1ccc2c(c1)OCO2)c1ccc(C(C)C)cc1` [MLS000117405]: greater than 95 µM; for `O=C(Oc1cccc(C(=O)N2CCOCC2)c1)c1ccc(Br)cc1` [(3-morpholin-4-ylcarbonylphenyl) 4-bromanylbenzoate]: greater than 95 µM; for `COC(=O)c1cc(NCc2ccccc2F)ccc1N1CCOCC1` [5-[(2-fluorobenzyl)amino]-2-morpholino-benzoic acid methyl ester]: 5.46 µM.

Staying with this experiment, now noted: inactive by the depositor's call.
Consider `CCOc1nc(-c2ccccc2)ccc1-c1noc(-c2ccco2)n1` [2-Ethoxy-3-(5-furan-2-yl-[1,2,4]oxadiazol-3-yl)-6-phenyl-pyridine], for which the EC50 came to 14.8 µM.

For `CCCc1cc2c(=O)c(-c3ccccn3)coc2cc1OC` [7-methoxy-6-propyl-3-(2-pyridinyl)-1-benzopyran-4-one], the EC50 was found to be 37.1 µM. For `Clc1ccc(-c2nc3nc4ccccc4nc3n2Cc2ccco2)cc1` [2-(4-chlorophenyl)-3-(2-furanylmethyl)imidazo[4,5-b]quinoxaline], the EC50 is 16.6 µM.

Take `CCOc1ccccc1COC(=O)c1cccc(-n2cnnn2)c1` [(2-ethoxyphenyl)methyl 3-(1,2,3,4-tetrazol-1-yl)benzoate]: the EC50 stood at 25.8 µM. On the same count and under the same terms, the same measure for `CCN(CC)S(=O)(=O)c1cc(C(=O)Nc2ccncc2)ccc1Cl` [4-chloranyl-3-(diethylsulfamoyl)-N-pyridin-4-yl-benzamide]: 44.2 µM; for `CN(Cc1cccs1)c1ncnc2sccc12` [MLS000056228]: 14.2 µM.
